In US20250388605A1, “HETEROBIFUNCTIONAL COMPOUNDS AND METHODS OF TREATING DISEASE” (Halda Therapeutics OpCo, Inc., priority 2022, published 2025):

Columns and labels:
[1] = tested on: VCaP cells; test: Cellular growth inhibition assay for VCaP cells, CellTiter-Glo; assay type: cell-based, human; details: 72 hours
In short: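 GI50 values come from four-parameter curve fits of luminescence data normalized to a zero baseline. Compound, in medium with 0.5% DMSO, was added one day after plating and left for 72 h before CellTiter-Glo 2.0 addition.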

[2] = tested on: T-Rex 293 cell line SC3 cells having increased expression of androgen receptor protein due to exposure to doxycycline; test: Cellular growth inhibition, T-Rex 293 SC3 cells with doxycycline (increased androgen receptor expression), CellTiter-Glo; assay type: cell-based; details: T-Rex 293 SC3 cells with 10 ng/mL doxycycline (increased androgen receptor expression), 72 hours, CellTiter-Glo 2.0
In short: (§1)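 Doxycycline (10 ng/mL) was either included or omitted to toggle wild-type androgen receptor expression in SC3 cells, a T-Rex 293 clone, grown in stripped-serum, phenol red-free medium. After 72 hours with compound, viable cells were quantified by CellTiter-Glo 2.0.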

[3] = tested on: T47D cells; test: Cellular Growth Inhibition Assay for T47D Cells (CellTiter-Glo); assay type: cell-based, human; details: 72 hours
In short: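 GI50 values derive from four-parameter regression of CellTiter-Glo 2.0 luminescence, using zero luminescence as baseline. Human breast cancer T47D cells (3000/well; DMEM, 10% FBS, 0.2 units/mL insulin) were exposed for 72 h to compound dilutions at 0.5% DMSO, with dosing starting 24 h after seeding.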

[4] = tested on: T-Rex 293 cell line SC3 cells lacking increased expression of androgen receptor protein; test: Cellular growth inhibition, T-Rex 293 SC3 cells without doxycycline (no increased androgen receptor expression), CellTiter-Glo; assay type: cell-based; details: T-Rex 293 SC3 cells not exposed to doxycycline (no increased androgen receptor expression), 72 hours
In short: as §1

SMILES	GI50 ([1]; Homo sapiens)	GI50 ([3]; Homo sapiens)	GI50 [1]	GI50 [3]	GI50 [2]	GI50 [4]
CCS(=O)(=O)Nc1ccc(Oc2cccc(C3CC(N(C)C4CCN(c5ncc(C(=O)N[C@H]6C(C)(C)[C@H](Oc7ccc(C#N)c(Cl)c7)C6(C)C)cn5)CC4)C3)c2)c(-c2cn(C)c(=O)c3[nH]ccc23)c1 (stereo partly shown) [Compound I-129]	–	–	< 500 nM	< 500 nM	< 500 nM	< 500 nM
Cn1cc(-c2cc(C(C)(C)O)ccc2OC2CCC(N3CC(OC4CCN(c5ncc(C(=O)NC6C(C)(C)C(Oc7ccc(C#N)c(Cl)c7)C6(C)C)cn5)CC4)C3)CC2)c2cc[nH]c2c1=O (stereo not shown) [Compound I-289]	–	–	500 to 1500 nM	1500 to 3000 nM	< 500 nM	1500 to 3000 nM
Cn1cc(-c2ccccc2Oc2cccc(OCCC3CCN(c4ncc(C(=O)N[C@H]5C(C)(C)[C@H](Oc6ccc(C#N)c(Cl)c6)C5(C)C)cn4)CC3)c2F)c2cc[nH]c2c1=O [Compound I-117]	–	–	< 500 nM	500 to 1500 nM	< 500 nM	> 3000 nM
Cn1cc(-c2cc(S(C)(=O)=O)ccc2Oc2cccc(CCCC3CCN(c4ncc(C(=O)N[C@H]5C(C)(C)[C@H](Oc6ccc(C#N)c(Cl)c6)C5(C)C)cn4)CC3)c2F)c2cc[nH]c2c1=O [Compound I-250]	–	–	500 to 1500 nM	< 500 nM	< 500 nM	> 3000 nM
Cn1cc(-c2cc(C(C)(C)O)ccc2Oc2ccc(C3(NC4CCN(c5ncc(C(=O)N[C@H]6C(C)(C)[C@H](Oc7ccc(C#N)c(Cl)c7)C6(C)C)cn5)CC4)COC3)cc2)c2cc[nH]c2c1=O [Compound I-246]	–	–	< 500 nM	500 to 1500 nM	< 500 nM	< 500 nM
CCS(=O)(=O)Nc1ccc(Oc2cccc(C3CN(C4CCN(c5ncc(C(=O)N[C@H]6C(C)(C)[C@H](Oc7ccc(C#N)c(Cl)c7)C6(C)C)cn5)CC4)C3)c2)c(-c2cn(C)c(=O)c3[nH]ccc23)c1 [Compound I-76]	< 500 nM	< 500 nM	–	–	< 500 nM	1500 to 3000 nM
Cn1cc(-c2cc(C(C)(C)O)ccc2Oc2ccc(CN3CC4(C3)CN(c3ncc(C(=O)N[C@H]5C(C)(C)[C@H](Oc6ccc(C#N)c(Cl)c6)C5(C)C)cn3)C4)cc2)c2cc[nH]c2c1=O [Compound I-327]	< 500 nM	< 500 nM	–	–	< 500 nM	< 500 nM
Cn1cc(-c2cc(C(C)(C)O)ccc2Oc2ccc(N3CC(CC4CCN(c5cnc(C(=O)N[C@H]6C(C)(C)[C@H](Oc7ccc(C#N)c(Cl)c7)C6(C)C)cn5)CC4)C3)nc2)c2cc[nH]c2c1=O [Compound I-334]	< 500 nM	< 500 nM	–	–	< 500 nM	> 3000 nM
CCS(=O)(=O)c1ccc(Oc2ccc(CN3CCC4(CCN(c5ncc(C(=O)N[C@H]6C(C)(C)[C@H](Oc7ccc(C#N)c(Cl)c7)C6(C)C)cn5)C4)C3)c(F)c2)c(-c2cn(C)c(=O)c3[nH]ccc23)c1 (stereo partly shown) [Compound I-272]	< 500 nM	< 500 nM	–	–	< 500 nM	< 500 nM

Now from value to compound, other results behind:

GI50 ([1]; Homo sapiens)	GI50 ([3]; Homo sapiens)	GI50 [1]	GI50 [3]	SMILES	GI50 [2]	GI50 [4]
< 500 nM	< 500 nM	–	–	CC(=O)Nc1ccc(Oc2cccc(OCCOC3CCN(c4ncc(C(=O)N[C@H]5C(C)(C)[C@H](Oc6ccc(C#N)c(Cl)c6)C5(C)C)cn4)CC3)c2)c(-c2cn(C)c(=O)c3[nH]ccc23)c1 [Compound I-57, 2-(4-(2-(3-(4-acetamido-2-(6-methyl-7-oxo-6,7-dihydro-1H-pyrrolo [2,3-c]pyridin-4-yl)phenoxy)phenoxy)ethoxy)piperidin-1-yl)-N-((1r, 3r)-3-(3-chloro-4-cyanophenoxy)-2,2,4,4-tetramethylcyclobutyl)pyrimidine-5-carboxamide]	< 500 nM	500 to 1500 nM
< 500 nM	< 500 nM	–	–	CCS(=O)(=O)c1ccc(OC2CC(CCN3CCC4(CCN(c5ncc(C(=O)N[C@H]6C(C)(C)[C@H](Oc7ccc(C#N)c(Cl)c7)C6(C)C)cn5)C4)C3)C2)c(-c2cn(C)c(=O)c3[nH]ccc23)c1 (stereo partly shown) [Compound I-270, N-[3-(3-chloro-4-cyano-phenoxy)-2,2,4,4-tetramethyl-cyclobutyl]-2-[7-[2-[3-[4-ethylsulfonyl-2-(6-methyl-7-oxo-1H-pyrrolo[2,3-c]pyridin-4-yl)phenoxy]cyclobutyl]ethyl]-2,7-diazaspiro[4.4]nonan-2-yl]pyrimidine-5-carboxamide]	< 500 nM	500 to 1500 nM
< 500 nM	< 500 nM	–	–	Cn1cc(-c2cc(C(C)(C)O)ccc2Oc2ccc(OC3CC4(C3)CC3(CCN(c5ncc(C(=O)N[C@H]6C(C)(C)[C@H](Oc7ccc(C#N)c(Cl)c7)C6(C)C)cn5)CC3)C4)cc2)c2cc[nH]c2c1=O [Compound I-326]	< 500 nM	> 3000 nM
< 500 nM	500 to 1500 nM	–	–	Cn1cc(-c2cc(N)ccc2Oc2cccc(N3CC(N4CCN(c5ncc(C(=O)N[C@H]6C(C)(C)[C@H](Oc7ccc(C#N)c(Cl)c7)C6(C)C)cn5)CC4)C3)c2)c2cc[nH]c2c1=O [Compound I-89, 2-(4-(1-(3-(4-amino-2-(6-methyl-7-oxo-6,7-dihydro-1H-pyrrolo[2,3-c]pyridin-4-yl)phenoxy)phenyl)azetidin-3-yl)piperazin-1-yl)-N-((1r, 3r)-3-(3-chloro-4-cyanophenoxy)-2,2,4,4-tetramethylcyclobutyl)pyrimidine-5-carboxamide]	< 500 nM	> 3000 nM
< 500 nM	< 500 nM	–	–	CCS(=O)(=O)c1ccc(Oc2ccc(OC3CC4(CCN(c5ncc(C(=O)N[C@H]6C(C)(C)[C@H](Oc7ccc(C#N)c(Cl)c7)C6(C)C)cn5)CC4)C3)c(F)c2)c(-c2cn(C)c(=O)c3[nH]ccc23)c1 [Compound I-283]	< 500 nM	> 3000 nM
< 500 nM	< 500 nM	–	–	Cn1cc(-c2cc(C(C)(C)O)ccc2Oc2ccc(OC3CCN(C4CCN(c5ncc(C(=O)N[C@H]6C(C)(C)[C@H](Oc7ccc(C#N)c(Cl)c7)C6(C)C)cn5)CC4)CC3)cc2)c2cc[nH]c2c1=O [Compound I-328]	< 500 nM	< 500 nM
< 500 nM	< 500 nM	–	–	CCS(=O)(=O)Nc1ccc(Oc2cccc(C3CN(CC4CCN(c5ncc(C(=O)N[C@H]6C(C)(C)[C@H](Oc7ccc(C#N)c(Cl)c7)C6(C)C)cn5)CC4)C3)c2)c(-c2cn(C)c(=O)c3[nH]ccc23)c1 [Compound I-78]	< 500 nM	< 500 nM
< 500 nM	< 500 nM	–	–	Cn1cc(-c2cc(C(C)(C)O)ccc2Oc2ccc(CC3CCN(c4ncc(C(=O)N[C@H]5C(C)(C)[C@H](Oc6ccc(C#N)c(Cl)c6)C5(C)C)cn4)CC3)nc2)c2cc[nH]c2c1=O [Compound I-298, N-[3-(3-chloro-4-cyano-phenoxy)-2,2,4,4-tetramethyl-cyclobutyl]-2-[4-[[5-[4-(1-hydroxy-1-methyl-ethyl)-2-(6-methyl-7-oxo-1H-pyrrolo[2,3-c]pyridin-4-yl)phenoxy]-2-pyridyl]methyl]-1-piperidyl]pyrimidine-5-carboxamide]	< 500 nM	< 500 nM
< 500 nM	< 500 nM	–	–	CCS(=O)(=O)Nc1ccc(Oc2cccc(C3CC(C4CCN(c5ncc(C(=O)N[C@H]6C(C)(C)[C@H](Oc7ccc(C#N)c(Cl)c7)C6(C)C)cn5)CC4)C3)c2)c(-c2cn(C)c(=O)c3[nH]ccc23)c1 (stereo partly shown) [Compound I-157]	< 500 nM	> 3000 nM
< 500 nM	< 500 nM	–	–	CCS(=O)(=O)c1ccc(Oc2ccc(CN3CC4(CCN(c5ncc(C(=O)N[C@H]6C(C)(C)[C@H](Oc7ccc(C#N)c(Cl)c7)C6(C)C)cn5)CC4)C3)c(F)c2)c(-c2cn(C)c(=O)c3[nH]ccc23)c1 [Compound I-275]	< 500 nM	< 500 nM
